Data taken from patent publication US20240252454A1, “COMPOSITION COMPRISING AN INHIBITOR OF MITOCHONDRIAL TRANSCRIPTION” (LEAD DISCOVERY CENTER GMBH, priority 2021, published 2024).

Columns and labels:
Assay in all cases: SRB assay, IMT combined with inhibitor
Format in all cases: cell-based
[1] = system: A549; conditions: A549 (lung); concentration series of the labelled inhibitor + fixed concentration of IMT (3S)-1-[(2R)-2-[4-(2-chloro-4-fluoro-phenyl)-2-oxo-chromen-7-yl]oxypropanoyl]piperidine-3-carboxylic acid (Table 3: 40 nM, 120 h); negative=synergistic, positive=antagonistic
Procedure: (§1) Solforhodamine B assay is carried out as described in Voigt W. (2005) Sulforhodamine B Assay and Chemosensitivity. (Methods in Molecular Medicine™, vol 110. Humana Press. https://doi.org/10.1385/1-59259-869-2:039).
(§2) The determination of changes in cellular biomass was based on the Solforhodamine B assay format, carried out as described in Voigt W. (2005) Sulforhodamine B Assay and Chemosensitivity. (Methods in Molecular Medicine™, vol 110. Humana Press. https://doi.org/10.1385/1-59259-869-2:039).
(§3) All in vitro cell culture experiments were carried out under near physiological glucose concentrations (5 mM) in at least two independent replicates.
(§4) First, 30 different cell lines from 14 different tissue types were tested in the SRB assay format. The cells were examined individually for changes in growth over a period of 120 hours with dilution series of both inhibitors. Untreated cells were used as a negative control group. Subsequently, a dilution series of the respective MAPK signalling pathway SOCs was treated in combination with a fixed concentration of 40 nM (3S)-1-[(2R)-2-[4-(2-chloro-4-fluoro-phenyl)-2-oxo-chromen-7-yl]oxypropanoyl]piperidine-3-carboxylic acid.

[2] = system: A673; conditions: A673 (muscle); concentration series of the labelled inhibitor + fixed concentration of IMT (3S)-1-[(2R)-2-[4-(2-chloro-4-fluoro-phenyl)-2-oxo-chromen-7-yl]oxypropanoyl]piperidine-3-carboxylic acid (Table 3: 40 nM, 120 h); negative=synergistic, positive=antagonistic
Procedure: as §1, §2, §3, §4

[3] = system: COLO205; conditions: COLO205 (colon); concentration series of the labelled inhibitor + fixed concentration of IMT (3S)-1-[(2R)-2-[4-(2-chloro-4-fluoro-phenyl)-2-oxo-chromen-7-yl]oxypropanoyl]piperidine-3-carboxylic acid (Table 3: 40 nM, 120 h); negative=synergistic, positive=antagonistic
Procedure: as §1, §2, §3, §4

[4] = system: HCT15; conditions: HCT15 (colon); concentration series of the labelled inhibitor + fixed concentration of IMT (3S)-1-[(2R)-2-[4-(2-chloro-4-fluoro-phenyl)-2-oxo-chromen-7-yl]oxypropanoyl]piperidine-3-carboxylic acid (Table 3: 40 nM, 120 h); negative=synergistic, positive=antagonistic
Procedure: as §1, §2, §3, §4

[5] = system: HT1080; conditions: HT1080 (connective tissue); concentration series of the labelled inhibitor + fixed concentration of IMT (3S)-1-[(2R)-2-[4-(2-chloro-4-fluoro-phenyl)-2-oxo-chromen-7-yl]oxypropanoyl]piperidine-3-carboxylic acid (Table 3: 40 nM, 120 h); negative=synergistic, positive=antagonistic
Procedure: as §1, §2, §3, §4

[6] = system: IMR90; conditions: IMR90 (lung); concentration series of the labelled inhibitor + fixed concentration of IMT (3S)-1-[(2R)-2-[4-(2-chloro-4-fluoro-phenyl)-2-oxo-chromen-7-yl]oxypropanoyl]piperidine-3-carboxylic acid (Table 3: 40 nM, 120 h); negative=synergistic, positive=antagonistic
Procedure: as §1, §2, §3, §4

[7] = system: JAR; conditions: JAR (placenta); concentration series of the labelled inhibitor + fixed concentration of IMT (3S)-1-[(2R)-2-[4-(2-chloro-4-fluoro-phenyl)-2-oxo-chromen-7-yl]oxypropanoyl]piperidine-3-carboxylic acid (Table 3: 40 nM, 120 h); negative=synergistic, positive=antagonistic
Procedure: as §1, §2, §3, §4

[8] = system: MHHES1; conditions: MHHES1 (bone); concentration series of the labelled inhibitor + fixed concentration of IMT (3S)-1-[(2R)-2-[4-(2-chloro-4-fluoro-phenyl)-2-oxo-chromen-7-yl]oxypropanoyl]piperidine-3-carboxylic acid (Table 3: 40 nM, 120 h); negative=synergistic, positive=antagonistic
Procedure: as §1, §2, §3, §4

[9] = system: MV4-11; conditions: MV4-11 (hematological); concentration series of the labelled inhibitor + fixed concentration of IMT (3S)-1-[(2R)-2-[4-(2-chloro-4-fluoro-phenyl)-2-oxo-chromen-7-yl]oxypropanoyl]piperidine-3-carboxylic acid (Table 3: 40 nM, 120 h); negative=synergistic, positive=antagonistic
Procedure: as §1, §2, §3, §4

[10] = system: PANC1; conditions: PANC1 (pancreas); concentration series of the labelled inhibitor + fixed concentration of IMT (3S)-1-[(2R)-2-[4-(2-chloro-4-fluoro-phenyl)-2-oxo-chromen-7-yl]oxypropanoyl]piperidine-3-carboxylic acid (Table 3: 40 nM, 120 h); negative=synergistic, positive=antagonistic
Procedure: as §1, §2, §3, §4

[11] = system: SKMEL28; conditions: SKMEL28 (skin); concentration series of the labelled inhibitor + fixed concentration of IMT (3S)-1-[(2R)-2-[4-(2-chloro-4-fluoro-phenyl)-2-oxo-chromen-7-yl]oxypropanoyl]piperidine-3-carboxylic acid (Table 3: 40 nM, 120 h); negative=synergistic, positive=antagonistic
Procedure: as §1, §2, §3, §4

[12] = system: SKOV3; conditions: SKOV3 (ovary); concentration series of the labelled inhibitor + fixed concentration of IMT (3S)-1-[(2R)-2-[4-(2-chloro-4-fluoro-phenyl)-2-oxo-chromen-7-yl]oxypropanoyl]piperidine-3-carboxylic acid (Table 3: 40 nM, 120 h); negative=synergistic, positive=antagonistic
Procedure: as §1, §2, §3, §4

[13] = system: U2OS; conditions: U2OS (bone); concentration series of the labelled inhibitor + fixed concentration of IMT (3S)-1-[(2R)-2-[4-(2-chloro-4-fluoro-phenyl)-2-oxo-chromen-7-yl]oxypropanoyl]piperidine-3-carboxylic acid (Table 3: 40 nM, 120 h); negative=synergistic, positive=antagonistic
Procedure: as §1, §2, §3, §4

[14] = system: A2780; conditions: A2780 (ovary); concentration series of the labelled inhibitor + fixed concentration of IMT (3S)-1-[(2R)-2-[4-(2-chloro-4-fluoro-phenyl)-2-oxo-chromen-7-yl]oxypropanoyl]piperidine-3-carboxylic acid (Table 3: 40 nM, 120 h); negative=synergistic, positive=antagonistic
Procedure: In two studies, the ovarian cell line A2780 was tested for 72 hours with the IMT N,N-dimethyl-2-[4-(o-tolyl)-2-oxo-chromen-7-yl]oxy-propanamide (30 μM-15 nM) and the MEK inhibitor Selumetinib (30 μM-10 nM), or with the IMT 1-[2-[4-(2-chlorophenyl)-2-oxo-chromen-7-yl]oxypropanoyl]piperidine-3-sulfonamide (30 μM-15 nM) and the MEK inhibitor PD318088 (30 μM-10 nM).
as §1, §2, §3, §4

| Structure (SMILES) | difference between the calculated combinatorial index (BLISS) and the observed combinatorial effect [1] | difference between the calculated combinatorial index (BLISS) and the observed combinatorial effect [2] | difference between the calculated combinatorial index (BLISS) and the observed combinatorial effect [3] | difference between the calculated combinatorial index (BLISS) and the observed combinatorial effect [4] | difference between the calculated combinatorial index (BLISS) and the observed combinatorial effect [5] | difference between the calculated combinatorial index (BLISS) and the observed combinatorial effect [6] | difference between the calculated combinatorial index (BLISS) and the observed combinatorial effect [7] | difference between the calculated combinatorial index (BLISS) and the observed combinatorial effect [8] | difference between the calculated combinatorial index (BLISS) and the observed combinatorial effect [9] | difference between the calculated combinatorial index (BLISS) and the observed combinatorial effect [10] | difference between the calculated combinatorial index (BLISS) and the observed combinatorial effect [11] | difference between the calculated combinatorial index (BLISS) and the observed combinatorial effect [12] | difference between the calculated combinatorial index (BLISS) and the observed combinatorial effect [13] | difference between the calculated combinatorial index (BLISS) and the observed combinatorial effect [14] |
| --- | --- | --- | --- | --- | --- | --- | --- | --- | --- | --- | --- | --- | --- | --- |
| Cc1cc(C(=O)NOCCO)c(Nc2ccc(I)cc2F)n(C)c1=O [AZD8330, 2-((2-Fluoro-4-iodophenyl)amino)-N-(2-hydroxyethoxy)-1,5-dimethyl-6-oxo-1,6-dihydropyridine-3-carboxamide] | −0.0341 | −0.0047 | 0.0127 | 0.1028 | 0.0197 | 0.0338 | 0.0124 | 0.0682 | 0.0680 | 0.0157 | 0.0300 | −0.0609 | −0.0171 | 0.0118 |
| COc1c(OCCCN2CCOCC2)ccc2c1N=C(NC(=O)c1cnc(N)nc1)N1CCN=C21 [BAY 80-6946, 2-Amino-N-{7-methoxy-8-[3-(4-morpholinyl)propoxy]-2,3-dihydroimidazo[1,2-c]quinazolin-5-yl}-5-pyrimidinecarboxamide] | 0.0159 | 0.0259 | 0.0531 | 0.1444 | −0.0627 | 0.0281 | 0.0381 |  | 0.0337 | 0.0174 | −0.0068 | 0.0112 | 0.0017 | 0.0466 |
| C[C@H](Nc1ncnc2nc[nH]c12)c1cc2cccc(Cl)c2c(=O)n1-c1ccccc1 [Duvelisib] | −0.0092 | 0.0570 | −0.0157 | 0.0170 | −0.0565 | 0.0253 | 0.0624 |  | 0.0611 | −0.0096 | −0.0412 | 0.0398 | −0.0126 | 0.0081 |
| CS(=O)(=O)N1CCN(Cc2cc3nc(-c4cccc5[nH]ncc45)nc(N4CCOCC4)c3s2)CC1 [GDC-0941, 2-(1H-Indazol-4-yl)-6-[[4-(methylsulfonyl)-1-piperazinyl]methyl]-4-(4-morpholinyl)thieno[3,2-d]pyrimidine] | 0.0023 | 0.0099 | 0.0355 | 0.0270 | 0.0172 | 0.0629 | 0.0136 |  | 0.0272 | −0.0128 | −0.0330 | 0.0556 | 0.0451 | 0.0077 |
| O=C(c1cc(Cc2n[nH]c(=O)c3ccccc23)ccc1F)N1CCN(C(=O)C2CC2)CC1 [Olaparib] | 0.0174 | 0.0334 | −0.0607 | −0.0472 |  | 0.0084 | 0.0294 | 0.0269 | 0.0407 | −0.0430 | −0.0624 | 0.0092 | −0.0034 | −0.0656 |
